Experiment [1] concerns the target Y169F IPMS (Mycobacterium tuberculosis, UniProt P9WQB3, Y169F). Format: biochemical. The settings on record: for Km: read-out: K1 (Km).
The target of experiment [2] is T1, H379A IPMS (Mycobacterium tuberculosis, UniProt P9WQB3, H379A). Format: biochemical.
In experiment [3] the target is T2, Y410F IPMS (Mycobacterium tuberculosis, UniProt P9WQB3, Y410F). Format: biochemical. The settings on record: for Km: read-out: K1 (Km).
Experiment [4] concerns the target T3, E218A IPMS (Mycobacterium tuberculosis, UniProt P9WQB3, E218A). Format: biochemical.
In experiment [5] the target is T2, Y410F IPMS. Format: binding.
Experiment [6] concerns the target T3, E218A IPMS. Format: biochemical. The source holds these as a separate data set.
Experiment [7] deals with T3, E218A IPMS. Format: binding.
Experiment [8] addresses Y169F MtIPMS (Mycobacterium tuberculosis, UniProt P9WQB3, Y169F). Format: biochemical.
In experiment [9] the target is T1, H379A IPMS. Format: biochemical. This is another data set of the same source.
Experiment [10] concerns the target T2, Y410F IPMS. Format: biochemical.

Entries after “also recorded” stand apart in the source; their conditions may differ. Marks after values point to notes of the source that are not given here.

Results on three compounds are retold here after PMC2724842 (Biochemistry, 2009).

Take `CC(=O)SCCNC(=O)CCNC(=O)[C@H](O)C(C)(C)COP(=O)(O)OP(=O)(O)OC[C@H]1O[C@@H](n2cnc3c(N)ncnc32)[C@H](O)[C@@H]1OP(=O)(O)O` [Acetyl-CoA, acetyl-coenzyme A]: in experiment [1], the “kcat1 (kcat)” value turned out to be 5.67 ± 0.217 s⁻¹ and the Km – broadly, the concentration of substrate that gives half-maximal velocity – was 40 ± 6 µM. For the same compound, the “kcat1 (kcat)” value in [2] amounted to 2.55 ± 0.033 s⁻¹. The Michaelis constant (Km) in [2] (read-out: K1 (Km)) was 23 ± 1.5 µM. Further, in experiment [3], the “kcat1 (kcat)” value stood at 0.0933 ± 0.0033 s⁻¹ and the Michaelis-Menten constant (Km) is 1.1 ± 0.2 µM. Moreover, in experiment [4], the K1 turned out to be 9.5 ± 1.1 µM, the K2 is on record as 697 ± 615 µM, the kcat1 is 0.0583 ± 0.0033 s⁻¹ and the kcat2 was 0.0933 ± 0.0467 s⁻¹.

For `CC(C)C[C@H](N)C(=O)O` [L-leucine], in experiment [5], the “N (stoichiometry for binding)” value worked out at 0.91 ± 0.01, the ΔH is 2.598 ± 0.048 kcal/mol and the ΔS is 30.1 cal/mol/K. Further, in experiment [6], the “activity retained, vss data” value came to 16% and the “β, limiting value for vi” value was 0.61/0.16 ^c. Further, in experiment [7], the “N (stoichiometry for binding)” value came out at 0.97 ± 0.01, the ΔH was determined as 1.486 ± 0.031 kcal/mol and the ΔS is given as 28.5 cal/mol/K. The “inhibition at saturating L-leucine” value in experiment [8] is given as “fully inhibited; also recorded: completely inhibited”. Further, in experiment [9], the “activity retained at saturating L-leucine” value turned out to be 24% and the “β (fractional activity at saturating inhibitor)” value is 0.24. For the same compound, the “sensitivity to L-leucine inhibition” value in [10] was “insensitive”.

On to `CC(C)C(=O)C(=O)O` [α-KIV, α-ketoisovalerate], for which, in [1], the “kcat1 (kcat)” value worked out at 4.75 ± 0.267 s⁻¹ and the Michaelis-Menten constant (Km) was found to be 13.4 ± 2.6 µM. Also, in experiment [2], the K1 is 1.6 ± 1.1 µM, the K2 was found to be 19 ± 6 µM, the kcat1 was 0.7 ± 0.3 s⁻¹ and the kcat2 worked out at 1.48 ± 0.283 s⁻¹. For the same compound, in experiment [3], the “kcat1 (kcat)” value was 0.075 ± 0.0033 s⁻¹ and the Michaelis constant (Km) was determined as 0.5 ± 0.1 µM. Besides, in experiment [4], the K1 was found to be 1.6 ± 0.2 µM, the K2 came to 39 ± 11 µM, the kcat1 amounted to 0.0367 ± 0.0017 s⁻¹ and the kcat2 is 0.0217 ± 0.0017 s⁻¹.
